Measured values published in patent US5552520A, “Therapeutic peptide derivatives” (Biomeasure, Inc., priority 1994, dated 1996).
pIC50: −log10 of the molar value. Each block holds one molecule with its values, some of them ahead of it. Numbered stars: 1 amine (or outer) side, 2 acyl side, 3 side chain; on linkers, the order of the positions; unused ones are H or OH. Bridge positions count the residues as written; N and C are the ends. Square brackets hold non-standard residues; d marks the D form. Peptide text beside a SMILES is read from it. * marks the point of attachment. X2 = O=C([C@@H](Cc1ccccc1)N(CC(CO)(CO)CO)[*:1])[*:2]; 2Nal = N[C@@H](Cc1ccc2ccccc2c1)C(=O)O; X3 = O=C(CN(C(CO)(CO)CO)[*:1])[*:2]; X4 = O=C(CN1CCN(CCO)CC1)*

Key:
[1] = test system: stimulated growth hormone release; assay: Growth Hormone (GH) Inhibition Assay in rats (D-Ala2-GRF stimulated GH); assay type: in vivo, male Sprague Dawley rats; conditions: s.c.; for Inhibition of stimulated growth hormone release (percentile control): 25 μg/kg
Method: Groups of five male Sprague Dawley rats (each having a weight between 250-300 g) were injected s.c. with a somatostatin derivative or saline. Thirty minutes prior to the selected post-drug time periods shown in table II (2 hours, 4 hours, 6 hours, 8 hours), rats were anesthetized with Nembutal i.p. (50 mg/kg). Fifteen minutes following anesthesia, an aliquot of blood was withdrawn by cardiac puncture over heparin to measure basal GH. Additionally, a s.c. injection of D-Ala^2 -GRF (10 μg/kg) was given. Fifteen minutes later, blood was withdrawn to quantitate the stimulated GH, which was measured in plasma using a radioimmunoassay supplied by NIADDKD. The percentage of GH inhibition was calculated from differences obtained between basal and stimulated GH values.
The efficacy of D-Phe-c[Cys-Tyr-D-Trp-Lys-Thr-Cys]-Nal-NH2 (SEQ ID NO. 113) (BIM-23060) in inhibiting growth hormone in rats is compared with other somatostatin derivatives (BIM-23167, BIM-23179, and BIM-23181) of the invention.
Additional experiments were conducted on D-Phe-c[Cys-Tyr-D-Trp-Lys-Abu-Cys]-Thr-NH2, (SEQ ID NO. 112) a somatostatin analog, and BIM-23190, BIM-23195 and BIM-23197, to determine the ED50 (i.e., the concentration of each compound required to inhibit fifty percent of growth hormone release after a specified time) of the respective compound. Experiments were conducted at a dose range of between 25 μg/kg and 0.25 μg/kg.

[2] = test system: AR42J rat pancreas tumor cells; assay: Antiproliferative assay on AR42J cells; assay type: cell-based; conditions: Concentration 100 nM, AR42J Rat Pancreas Tumor Cells after 8 days
Method: The purified somatostatin analogs described above were also tested for activity against rapidly proliferating cells.
^1 Concentration 100 nM, AR42J Rat Pancreas Tumor Cells after 8 days.

somatostatin receptor = target: T1, somatostatin receptor (Rattus norvegicus, UniProt P30680); assay: Somatostatin binding assay: in vitro inhibition of binding of [125I-Tyr11]SRIF-14 to rat AR42J pancreas membranes; conditions: inhibition of [125I-Tyr11]SRIF-14 binding, read-out: IC50, in vitro binding affinity
T1 construct: SRIF-14 to rat AR42J pancreas membranes; endogenous in cells; host or cells: rat AR42J pancreatic cells (membrane preparation)
T1 sequence (P30680 whole entry): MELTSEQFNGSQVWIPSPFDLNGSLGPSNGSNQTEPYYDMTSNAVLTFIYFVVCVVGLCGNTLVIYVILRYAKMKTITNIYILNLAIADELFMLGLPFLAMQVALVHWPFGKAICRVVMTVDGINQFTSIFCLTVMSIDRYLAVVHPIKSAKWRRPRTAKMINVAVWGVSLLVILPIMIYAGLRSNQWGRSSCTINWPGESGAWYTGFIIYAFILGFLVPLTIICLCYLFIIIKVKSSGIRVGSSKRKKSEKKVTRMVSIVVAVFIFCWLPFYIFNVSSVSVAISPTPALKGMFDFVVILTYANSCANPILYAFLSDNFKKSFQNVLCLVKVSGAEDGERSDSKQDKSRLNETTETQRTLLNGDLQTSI

Molecule: CC[C@@H]1NC(=O)[C@H](CCCCN)NC(=O)[C@@H](Cc2c[nH]c3ccccc23)NC(=O)[C@H](Cc2ccc(O)cc2)NC(=O)[C@@H](NC(=O)[C@H](N)Cc2ccccc2)CSSC[C@@H](C(=O)N[C@H](C(N)=O)[C@@H](C)O)NC1=O [BIM-23023, D-Phe-c[Cys-Tyr-D-Trp-Lys-Abu-Cys]-Thr-NH2, reference compound]
- ED50, inhibition of stimulated growth hormone release ([1]; 2 Hours): 0.48 µg/kg
- ED50, inhibition of stimulated growth hormone release ([1]; 4 Hours): 1.11 µg/kg
- ED50, inhibition of stimulated growth hormone release ([1]; 6 Hours): 2.26 µg/kg
- ED50, inhibition of stimulated growth hormone release ([1]; 8 Hours): 4.32 µg/kg

Molecule: CC(=O)OCC(COC(C)=O)(COC(C)=O)NC(=O)CCC(=O)N[C@H](Cc1ccc2ccccc2c1)C(=O)N[C@H]1CSSC[C@@H](C(=O)N[C@H](C(N)=O)[C@@H](C)O)NC(=O)[C@H](C(C)C)NC(=O)[C@H](CCCCN)NC(=O)[C@@H](Cc2c[nH]c3ccccc23)NC(=O)[C@H](Cc2ccc(O)cc2)NC1=O [BIM-23107, (AcO-CH2)3 -C-NH-CO-(CH2)2 -CO-D-Nal-c[Cys-Tyr-D-Trp-Lys-Val-Cys]-Thr-NH2]
- Cell growth (percent of control) [2]: 67.5% of control

Molecule: CC(C)[C@@H]1NC(=O)[C@H](CCCCN)NC(=O)[C@@H](Cc2c[nH]c3ccccc23)NC(=O)[C@H](Cc2ccc(O)cc2)NC(=O)[C@@H](NC(=O)[C@@H](Cc2ccc3ccccc3c2)NC(=O)COC2=C(O)C(=O)O[C@@H]2[C@@H](O)CO)CSSC[C@@H](C(=O)N[C@H](C(N)=O)[C@@H](C)O)NC1=O [BIM-23135]
- Cell growth (percent of control) [2]: 62.9% of control

Molecule: CC(C)[C@@H]1NC(=O)[C@H](CCCCN)NC(=O)[C@@H](Cc2c[nH]c3ccccc23)NC(=O)[C@H](Cc2ccc(O)cc2)NC(=O)[C@@H](NC(=O)[C@@H](Cc2ccc3ccccc3c2)NC(=O)CCC(=O)NC(CO)(CO)CO)CSSC[C@@H](C(=O)N[C@H](C(N)=O)[C@@H](C)O)NC1=O [BIM-23158, (HO-CH2)3 -C-NH-CO-(CH2)2 -CO-D-Nal-c[Cys-Tyr-D-Trp-Lys-Val-Cys]-Thr-NH2]
- pIC50 (somatostatin receptor): 9.48

Molecule: CC[C@@H]1NC(=O)[C@H](CCCCN)NC(=O)[C@@H](Cc2c[nH]c3ccccc23)NC(=O)[C@H](Cc2ccc(O)cc2)NC(=O)[C@@H](NC(=O)[C@@H](Cc2ccccc2)NC(=O)CCC(=O)NC(CO)(CO)CO)CSSC[C@@H](C(=O)N[C@H](C(N)=O)[C@@H](C)O)NC1=O [BIM-23173, (HO-CH2)3 -C-NH-CO-(CH2)2 -CO-D-Phe-c[Cys-Tyr-D-Trp-Lys-Abu-Cys]-Thr-NH2]
- pIC50 (somatostatin receptor): 9.96

Molecule: C[C@@H](O)[C@@H]1NC(=O)[C@H](CCCCN)NC(=O)[C@@H](Cc2c[nH]c3ccccc23)NC(=O)[C@H](Cc2ccc(O)cc2)NC(=O)[C@@H](NC(=O)[C@@H](Cc2ccccc2)NC(=O)CNC(CO)(CO)CO)CSSC[C@@H](C(=O)N[C@@H](Cc2ccc3ccccc3c2)C(N)=O)NC1=O [BIM-23179, (HO-CH2)3 -C-NH-CH2 -CO-D-Phe-c[Cys-Tyr-D-Trp-Lys-Thr-Cys]-Nal-NH2] (H-[X3][dF]CY[dW]KTC[2Nal]-NH2; disulfide 3-8)
- pIC50 (somatostatin receptor): 9.92
- Inhibition of stimulated growth hormone release (percentile control) ([1]; 2 Hours): 92.79 percentile control
- Inhibition of stimulated growth hormone release (percentile control) ([1]; 4 Hours): 63.85 percentile control
- Inhibition of stimulated growth hormone release (percentile control) ([1]; 6 Hours): 67.78 percentile control
- Inhibition of stimulated growth hormone release (percentile control) ([1]; 8 Hours): 68.26 percentile control

Molecule: CC[C@@H]1NC(=O)[C@H](CCCCN)NC(=O)[C@@H](Cc2c[nH]c3ccccc23)NC(=O)[C@H](Cc2ccc(O)cc2)NC(=O)[C@@H](NC(=O)[C@@H](Cc2ccccc2)NC(=O)COC2=C(OCC(O)CO)C(=O)O[C@@H]2[C@@H](O)CO)CSSC[C@@H](C(=O)N[C@H](C(N)=O)[C@@H](C)O)NC1=O (some centres unmarked) [BIM-23183]
- Cell growth (percent of control) [2]: 69.1% of control

Molecule: D-Phe-c[Cys-Tyr-D-Trp-Lys-Thr-Cys]-Nal-NH2 [BIM-23060, reference compound]
- Inhibition of stimulated growth hormone release (percentile control) ([1]; 2 Hours): 86.39 percentile control
- Inhibition of stimulated growth hormone release (percentile control) ([1]; 4 Hours): 64.96 percentile control
- Inhibition of stimulated growth hormone release (percentile control) ([1]; 6 Hours): 47.62 percentile control
- Inhibition of stimulated growth hormone release (percentile control) ([1]; 8 Hours): 38.15 percentile control

Results, then the molecule that gave them:

- pIC50 (somatostatin receptor): 9.92
Molecule: CC[C@@H]1NC(=O)[C@H](CCCCN)NC(=O)[C@@H](Cc2c[nH]c3ccccc23)NC(=O)[C@H](Cc2ccc(O)cc2)NC(=O)[C@@H](NC(=O)[C@@H](Cc2ccccc2)NC(=O)CNC(CO)(CO)CO)CSSC[C@@H](C(=O)N[C@H](C(N)=O)[C@@H](C)O)NC1=O [BIM-23182, (HO-CH2)3 -C-NH-CH2 -CO-D-Phe-c[Cys-Tyr-D-Trp-Lys-Abu-Cys]-Thr-NH2]

- pIC50 (somatostatin receptor): 9.70
Molecule: CC[C@@H]1NC(=O)[C@H](CCCCN)NC(=O)[C@@H](Cc2c[nH]c3ccccc23)NC(=O)[C@H](Cc2ccc(O)cc2)NC(=O)[C@@H](NC(=O)[C@@H](Cc2ccccc2)NC(=O)CN2CCN(CCO)CC2)CSSC[C@@H](C(=O)N[C@H](C(N)=O)[C@@H](C)O)NC1=O [BIM-23190]

- pIC50 (somatostatin receptor): 10.10
Molecule: C[C@@H](O)[C@@H]1NC(=O)[C@H](CCCCN)NC(=O)[C@@H](Cc2c[nH]c3ccccc23)NC(=O)[C@H](Cc2ccc(O)cc2)NC(=O)[C@@H](NC(=O)[C@@H](Cc2ccccc2)NC(=O)CN2CCN(CCO)CC2)CSSC[C@@H](C(=O)N[C@@H](Cc2ccc3ccccc3c2)C(N)=O)NC1=O [BIM-23191] (X4-[dF]CY[dW]KTC[2Nal]-NH2; disulfide 2-7)

- pIC50 (somatostatin receptor): 10.10
Molecule: CC[C@@H]1NC(=O)[C@H](CCCCN)NC(=O)[C@@H](Cc2c[nH]c3ccccc23)NC(=O)[C@H](Cc2ccc(O)cc2)NC(=O)[C@@H](NC(=O)[C@@H](Cc2ccccc2)NCC(CO)(CO)CO)CSSC[C@@H](C(=O)N[C@H](C(N)=O)[C@@H](C)O)NC1=O [BIM-23195, (Ho-CH2)3 C-CH2 -D-Phe-C[Cys-Tyr-D-Trp-Lys-Abu-Cys]-Thr-NH2]

- pIC50 (somatostatin receptor): 10.05
Molecule: CC[C@@H]1NC(=O)[C@H](CCCCN)NC(=O)[C@@H](Cc2c[nH]c3ccccc23)NC(=O)[C@H](Cc2ccc(O)cc2)NC(=O)[C@@H](NC(=O)[C@@H](Cc2ccccc2)NS(=O)(=O)CCNC(CO)(CO)CO)CSSC[C@@H](C(=O)N[C@H](C(N)=O)[C@@H](C)O)NC1=O [BIM-23196]

- pIC50 (somatostatin receptor): 9.54
Molecule: CC[C@@H]1NC(=O)[C@H](CCCCN)NC(=O)[C@@H](Cc2c[nH]c3ccccc23)NC(=O)[C@H](Cc2ccc(O)cc2)NC(=O)[C@@H](NC(=O)[C@@H](Cc2ccccc2)NS(=O)(=O)CCN2CCN(CCO)CC2)CSSC[C@@H](C(=O)N[C@H](C(N)=O)[C@@H](C)O)NC1=O [BIM-23197]

- pIC50 (somatostatin receptor): 9.85
Molecule: C[C@@H](O)[C@@H]1NC(=O)[C@H](CCCCN)NC(=O)[C@@H](Cc2c[nH]c3ccccc23)NC(=O)[C@H](Cc2ccc(O)cc2)NC(=O)[C@@H](NC(=O)[C@@H](Cc2ccccc2)NCC(CO)(CO)CO)CSSC[C@@H](C(=O)N[C@@H](Cc2ccc3ccccc3c2)C(N)=O)NC1=O [BIM-23201, (HO-CH2)3 -C-CH2 -D-Phe-c[Cys-Tyr-D-Trp-Lys-Thr-Cys]-Nal-NH2] (H-[X2]CY[dW]KTC[2Nal]-NH2; disulfide 2-7)

- pIC50 (somatostatin receptor): 9.74
Molecule: CC[C@@H]1NC(=O)[C@H](CCCCN)NC(=O)[C@@H](Cc2c[nH]c3ccccc23)NC(=O)[C@H](Cc2ccc(O)cc2)NC(=O)[C@@H](NC(=O)[C@@H](Cc2ccccc2)NC(=O)CN2CCN(CCOCCO)CC2)CSSC[C@@H](C(=O)N[C@H](C(N)=O)[C@@H](C)O)NC1=O [BIM-23202]
